For this series the following is noted: pH 7.4.
By logD is commonly meant lipophilicity at a set pH, counting ionised and neutral species. Low readings indicate a more hydrophilic compound, high ones a more lipophilic compound. For the compound `C[C@@H]1CN(c2noc(C3CC3)n2)CCN1c1ncc(OCc2ccncc2C#N)cn1`, the log distribution coefficient (logD) was found to be 3.1.

`CC(C)(C)OC(=O)N1CCN(c2cnc(OCc3ccc(S(C)(=O)=O)cc3)cn2)CC1`: the pH-dependent lipophilicity (logD) is 3.4.

In turn, `N#Cc1cnc(N2CCN(C(=O)[C@@H]3CCCC[C@H]3C(=O)NC3(C#N)CC3)CC2)s1` returned a logD of 1.2.

For `N#CC1(NC(=O)[C@@H]2CCCC[C@H]2C(=O)N2CCN(c3nc4ncccc4s3)CC2)CC1`, the logD was 1.4.

Take `CCCCN1Cc2c(nc3cc(-c4ccco4)[nH]n3c2=O)C1=O`: the logD stood at 0.8.

`CS(=O)(=O)C1(c2cc(N3CCOCC3)nc(-c3cccc4[nH]ccc34)n2)CCOCC1` showed a logD of 2.4.

`CS(=O)(=O)C1(c2cc(N3CCOCC3)nc(-c3cccc4[nH]ccc34)n2)CC1`: the logD was determined as 2.2.

With `Cc1nc2nc(NC(=O)c3ccc(F)cc3)[nH]n2c(=O)c1Cc1ccccc1`, the logD worked out at 2.2.

`COc1cc(OC)c(S(=O)(=O)N2c3ccccc3CCC2C)cc1NC(=O)CSc1ccncc1` (configuration not stated) returned a logD of 2.82.

`CCNC(=O)c1cc2c(-n3ccc(C(F)(F)F)n3)c(-c3cc(-c4n[nH]c(=O)o4)cnc3OC)cnc2[nH]1` came in with a logD of 2.91.

The compound `CS(=O)(=O)Cc1cc(N2CCOCC2)nc(-c2ccccc2)n1` yielded a pH-dependent lipophilicity (logD) of 1.94.

The compound `N#CC1(NC(=O)[C@@H]2CCCC[C@H]2C(=O)N2CCc3[nH]c4ncccc4c3C2)CC1` yielded a logD of 2.13.

As for `CC(C)(C)OC(=O)N1C[C@@H]2CC[C@H]1CN2c1ncc(OCc2ccc(S(C)(=O)=O)cc2)cn1`, the log distribution coefficient (logD) is 3.4.

Regarding `COc1ccc(N(C(=O)c2ccccc2)C(C(=O)NC2CCCC2)c2ccccc2F)c(OC)c1` (configuration not stated), the logD was 3.86.

`CCS(=O)(=O)c1ccc(-c2cc(C(F)(F)F)ccc2OCC(N)=O)c(C)c1` returned a logD of 2.77.

`C[C@H](C#N)NC(=O)[C@@H]1CCCC[C@H]1C(=O)N1CCc2[nH]c3ccc(F)cc3c2C1` came in with a logD of 3.1.

As for `Nc1ccccc1NC(=O)c1ccc(N2CCOCC2)cc1`, the pH-dependent lipophilicity (logD) came to 1.2.

The compound `N#CC1(NC(=O)[C@@H]2CCCC[C@H]2C(=O)N2CCN(c3nc4ccncc4s3)CC2)CC1` registered a logD of 1.6.

The compound `N#CC1(NC(=O)[C@@H]2CCCC[C@H]2C(=O)N2CCc3[nH]c4ccc(C(F)(F)F)cc4c3C2)CC1` came in with a logD of 4.2.

The compound `C[C@H]1O[C@@H](n2cnc3c(N)nc(O[C@H]4CC[C@H](C)CC4)nc32)[C@H](O)[C@@H]1O` yielded a logD of 2.35.

With `N#CC1(NC(=O)[C@@H]2CCCC[C@H]2C(=O)N2CCc3[nH]c4cc(F)ccc4c3C2)CC1`, the pH-dependent lipophilicity (logD) is 2.99.

Regarding `CS(=O)(=O)Cc1cc(N2CCOCC2)nc(-c2ccc(NS(C)(=O)=O)cc2)n1`, the logD was 0.85.

`N#CC1(NC(=O)[C@@H]2CCCC[C@H]2C(=O)N2CCc3oc4ccccc4c3C2)CC1`: the logD came to 3.01.

The compound `N#CC1(NC(=O)[C@@H]2CCCC[C@H]2C(=O)N2CCN(c3nc4c(s3)COCC4)CC2)CC1` came in with a logD of 1.42.

With `C[C@@H]1CN(C(=O)OC(C)(C)C)CCN1c1ncc(OCC2CCN(S(C)(=O)=O)CC2)cn1`, the logD stood at 3.5.

Consider `N#Cc1ccc(CN2CCN(c3ccc4nnc(C(F)(F)F)n4n3)CC2)cc1`, for which the log distribution coefficient (logD) is 2.9.

On to `C[C@@H]1CN(C(=O)OC(C)(C)C)CCN1c1ncc(OCc2ccc(S(C)(=O)=O)cc2F)cn1`, for which the pH-dependent lipophilicity (logD) turned out to be 3.7.

Turning to `CC(=O)c1ncccc1NC(=O)C1CCC(N2C(=O)[C@@H]3[C@@H]4CC[C@@H](C4)[C@@H]3C2=O)CC1` (some centres not stated), the logD is 3.01.

`O=S(=O)(Cc1cc(N2CCOCC2)nc(-c2ccccn2)n1)c1ccccc1` returned a logD of 1.34.

Compound `C[C@@H](Oc1ccc(S(C)(=O)=O)cc1C(=O)N1CCN(c2ncc(C(F)(F)F)cc2F)CC1)C(F)(F)F` registered a logD of 3.49.

`N#CC1(NC(=O)[C@@H]2CCCC[C@H]2C(=O)N2CCN(c3nc(-c4ccccc4)cs3)CC2)CC1`: the pH-dependent lipophilicity (logD) is 3.5.

With `C[C@H]1COCCN1c1cc(CS(C)(=O)=O)nc(-c2ccc3[nH]ccc3c2)n1`, the logD is 2.38.

`O=c1cc(-c2ccccc2)nc2cc[nH]n12` yielded a log distribution coefficient (logD) of 1.3.

Turning to `N#CC1(NC(=O)[C@@H]2CCCC[C@H]2C(=O)N2CCc3[nH]c4cccc(F)c4c3C2)CC1`, the log distribution coefficient (logD) worked out at 3.2.

The compound `C[C@@H]1CN(c2nc(C(F)(F)F)no2)CCN1c1ncc(OCc2ccncc2C#N)cn1` gave a logD of 3.1.

Regarding `COc1ccc(N(C(=O)c2occc2Cl)C(C(=O)NC[C@@H](C)O)c2ccccc2F)c(OC)c1` (some centres not stated), the logD turned out to be 2.18.

Compound `Cc1cnccc1COc1cnc(N2CCN(C(=O)OC(C)(C)C)CC2)nc1` returned a logD of 3.8.

As to `CS(=O)(=O)c1ccc2c3c([nH]c2c1)CCN(C(=O)[C@@H]1CCCC[C@H]1C(=O)NC1(C#N)CC1)C3`, the logD worked out at 1.5.

In turn, `C[C@H]1O[C@@H](n2cnc3c(N)nc(OC4CCCC4)nc32)[C@H](O)[C@H]1Cl` yielded a logD of 3.18.

The compound `N#CCNC(=O)[C@@H]1CCCC[C@H]1C(=O)N1CCN(c2ccc(C#N)cc2)CC1` returned a log distribution coefficient (logD) of 1.79.

`CCNC(=O)c1cc2c(-n3ccc(C(F)(F)F)n3)c(-c3cncc(-c4n[nH]c(=O)o4)c3)cnc2[nH]1` displayed a logD of 1.65.

In turn, `CC(C)(C)OC(=O)N1CCN(c2ncc(OCc3ccncc3F)cn2)CC1` showed a pH-dependent lipophilicity (logD) of 3.6.

Compound `CS(=O)(=O)c1cccc2c3c([nH]c12)CCN(C(=O)[C@@H]1CCCC[C@H]1C(=O)NC1(C#N)CC1)C3` yielded a logD of 1.7.

`N#Cc1cccnc1-c1ccc(C(=O)Nc2ccccc2N)cc1` came in with a logD of 1.58.

`C[C@H]1O[C@@H](n2cnc3c(N)nc(OCC4CC45CC5)nc32)[C@H](O)[C@@H]1O` (some centres not stated) yielded a logD of 1.78.

As to `CC(=O)N1CCN(CCOc2ccc(C3(O)CCN(c4ccc5nnc(C(F)(F)F)n5n4)CC3)cc2)CC1`, the logD is 2.2.

Consider `C[C@@H]1CN(c2ncc(F)cn2)CCN1c1ncc(OCc2ccncc2C#N)cn1`, for which the logD was determined as 3.4.

`CC(C)(C)OC(=O)N1CCN(c2ncc(OCc3ccncc3)cn2)CC1` showed a pH-dependent lipophilicity (logD) of 3.4.

The compound `Cc1nc2nc[nH]n2c(=O)c1CCOC(=O)c1c(F)cccc1F` yielded a logD of 0.16.

Turning to `Cc1nn(C)c2cc(N3CCN(C(=O)[C@@H]4CCCC[C@H]4C(=O)NC4(C#N)CC4)[C@H](C)C3)ccc12`, the logD was 2.7.

On to `N#CC1(NC(=O)[C@@H]2CCCC[C@H]2C(=O)N2CCc3[nH]c4ccc(Cl)cc4c3C2)CC1`, for which the pH-dependent lipophilicity (logD) stood at 3.65.

Consider `N#CC1(NC(=O)[C@@H]2CCCC[C@H]2C(=O)N2CCN(c3nc(C(F)(F)F)cs3)CC2)CC1`, for which the logD was 2.4.

On to `CC(C)(C)OC(=O)N1CCC(c2ncc(OCc3ccc(S(C)(=O)=O)cc3)cn2)CC1`, for which the pH-dependent lipophilicity (logD) turned out to be 2.8.

Consider `COc1cc2ncnc(Nc3cccc(Cl)c3F)c2cc1OC1CCN(CC(N)=O)CC1`, for which the logD was 3.1.

Take `CCNC(=O)c1cc2c(-n3ccc(C(F)(F)F)n3)c(-c3cncc(C#N)c3)cnc2[nH]1`: the pH-dependent lipophilicity (logD) amounted to 2.62.

On to `COc1ccc(N2CCN(C(=O)[C@@H]3CCCC[C@H]3C(=O)NC3(C#N)CC3)CC2)cc1`, for which the log distribution coefficient (logD) came out at 1.74.

Consider `CS(=O)(=O)Cc1cc(N2CCOCC2)nc(-c2ccc3[nH]ccc3c2)n1`, for which the pH-dependent lipophilicity (logD) came to 2.06.

`CCNC(=O)c1cc2c(-n3ccc(C(F)(F)F)n3)c(-c3cncc(C(=O)NC)c3)cnc2[nH]1` showed a pH-dependent lipophilicity (logD) of 2.21.

The compound `C[C@H]1CN(C(=O)OC(C)(C)C)CCN1c1ncc(OCc2ccc(S(C)(=O)=O)cc2)cn1` showed a logD of 3.5.

Turning to `COc1cc(N2CCN(C(=O)[C@@H]3CCCC[C@H]3C(=O)NC3(C#N)CC3)[C@H](C)C2)ccc1C1CC1`, the log distribution coefficient (logD) came out at 3.49.

Compound `N#CC1(NC(=O)[C@@H]2CCCC[C@H]2C(=O)N2CCN(c3nccs3)CC2)CC1` registered a logD of 1.3.

In the case of `N#CC1(NC(=O)[C@@H]2CCCC[C@H]2C(=O)N2CCN(c3nc4cnccc4s3)CC2)CC1`, the logD amounted to 1.66.

In the case of `Fc1ccc(CN2CCN(C3=Nn4c(nnc4C(F)(F)F)CC3)CC2)cc1`, the pH-dependent lipophilicity (logD) is 2.8.

As for `C[C@@H]1CN(C(=O)OC(C)(C)C)CCN1c1ncc(OCc2ccc(S(C)(=O)=O)cc2C#N)cn1`, the log distribution coefficient (logD) came out at 3.3.

With `Cc1nc2nc[nH]n2c(=O)c1CCOC(=O)c1ccccc1F`, the logD turned out to be 0.99.

For the compound `Cc1nc2nc(-c3cccnc3)[nH]n2c(=O)c1Cc1ccccc1`, the pH-dependent lipophilicity (logD) was found to be 1.52.

Compound `COc1cc(OC)c(S(=O)(=O)N2c3ccccc3CCC2C)cc1NC(=O)Cc1ccnc(F)c1` (configuration not stated) returned a logD of 2.49.

In the case of `N#CC1(NC(=O)[C@@H]2CCCC[C@H]2C(=O)N2CCc3[nH]c4c(C(F)(F)F)cccc4c3C2)CC1`, the pH-dependent lipophilicity (logD) stood at 3.75.

For the compound `CS(=O)(=O)c1ccc2nc(N3CCN(C(=O)[C@@H]4CCCC[C@H]4C(=O)NC4(C#N)CC4)CC3)sc2c1`, the logD turned out to be 1.49.

`Nc1ccccc1NC(=O)c1ccc(-c2ncc(CN3CCC3)cc2F)cc1`: the logD worked out at 1.69.

`Cc1cccc2c3c([nH]c12)CCN(C(=O)[C@@H]1CCCC[C@H]1C(=O)NC1(C#N)CC1)C3` came in with a logD of 2.99.

`N#CC1(NC(=O)[C@@H]2CCCC[C@H]2C(=O)N2CCc3[nH]c4c(F)cccc4c3C2)CC1` gave a logD of 3.03.

`COc1ccc(N(C(=O)c2occc2CO)C(C(=O)NC[C@@H](C)O)c2ccccc2F)c(OC)c1` (some centres not stated) displayed a logD of 1.37.

`Cc1ncc(-c2ccnc(Nc3ccc(N4CCN(S(=O)(=O)CCN(C)C)CC4)cc3)n2)n1C(C)C` had a logD of 2.52.

With `COc1ccc(N2CCN(C(=O)[C@@H]3CCCC[C@H]3C(=O)NC3(C#N)CC3)[C@H](C)C2)cc1OC`, the logD stood at 1.85.

Take `CCCSc1ncccc1C(=O)NC1[C@@H]2CC3C[C@H]1CC(O)(C3)C2` (some centres not stated): the logD was 2.27.

As to `COc1ccc2[nH]c3c(c2c1)CN(C(=O)[C@@H]1CCCC[C@H]1C(=O)NC1(C#N)CC1)CC3`, the log distribution coefficient (logD) came to 2.4.

`N#CC1(NC(=O)[C@@H]2CCCC[C@H]2C(=O)N2CCc3[nH]c4ccccc4c3C2)CC1`: the pH-dependent lipophilicity (logD) was 2.66.

Compound `CC(C)(C)OC(=O)N1CCN(c2ccc(OCc3ccc(S(C)(=O)=O)cc3)cc2)CC1` displayed a logD of 3.9.

Compound `COC1/C=C\OC2(C)Oc3c(C)c(O)c4c(c3C2=O)C(=O)C=C(NC(=O)/C(C)=C\C=C/C(C)C(O)C(C)C(O)C(C)C(OC(C)=O)C1C)C4=O` (configuration not stated) registered a log distribution coefficient (logD) of 0.7.

As for `CC(C)(C)OC(=O)N1CCN(c2ccc(OCc3ccc(S(C)(=O)=O)cc3)cn2)CC1`, the logD was found to be 3.2.

On to `CS(=O)(=O)c1cccc(Nc2nccc(Nc3c(Cl)ccc4c3OCO4)n2)c1`, for which the logD worked out at 3.13.

These data come from the SangsterLogP compilation.
